The record followed here is ChEMBL document CHEMBL5042470, “Combined Cardioprotective and Adipocyte Browning Effects Promoted by the Eutomer of Dual sEH/PPARγ Modulator” (J Med Chem, 2021).

Experiment [1] deals with SGBS. Kind of experiment: Induction of browning in human SGBS cells assessed as increase in UQCRC2 mRNA expression at 0.01 to 1 uM by qRT-PCR analysis. It is filed as functional, cell-based. The following applies: dose 0.01-1 µM. Background: Quantitative PCR measures a nucleic acid by following its amplification.
Experiment [2] has as its target T1, Peroxisome proliferator-activated receptor alpha (Homo sapiens) (UniProt Q07869).
T1 sequence (whole entry): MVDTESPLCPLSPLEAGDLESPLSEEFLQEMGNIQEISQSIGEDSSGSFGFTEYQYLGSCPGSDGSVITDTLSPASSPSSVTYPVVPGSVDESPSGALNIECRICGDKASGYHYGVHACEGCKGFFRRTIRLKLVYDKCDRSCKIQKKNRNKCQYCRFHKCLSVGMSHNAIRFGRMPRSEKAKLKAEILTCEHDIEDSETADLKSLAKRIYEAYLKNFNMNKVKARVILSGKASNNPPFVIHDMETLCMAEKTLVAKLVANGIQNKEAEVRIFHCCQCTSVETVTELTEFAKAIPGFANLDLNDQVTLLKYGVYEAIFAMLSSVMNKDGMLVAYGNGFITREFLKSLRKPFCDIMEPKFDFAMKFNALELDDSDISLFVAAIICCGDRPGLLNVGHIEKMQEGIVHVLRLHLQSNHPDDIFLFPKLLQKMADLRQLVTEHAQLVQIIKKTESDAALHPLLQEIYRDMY
The experiment can be described thus: Agonist activity at human GAL4 DBD-fused PPARalpha ( 164 to 466 residues) LBD transfected in HEK293T cells assessed as fold activation at 10 uM incubated for 14 to 16 hrs by Renilla/Firefly dual-luciferase reporter assay. It is filed as cell-based. The following applies: filed as agonist, time 14-16 hrs. For orientation: In a reporter assay the amount or activity of a reporter protein is the signal.

Experiment [3] deals with T2, Peroxisome proliferator-activated receptor delta (Homo sapiens) (UniProt Q03181).
T2 sequence (whole entry): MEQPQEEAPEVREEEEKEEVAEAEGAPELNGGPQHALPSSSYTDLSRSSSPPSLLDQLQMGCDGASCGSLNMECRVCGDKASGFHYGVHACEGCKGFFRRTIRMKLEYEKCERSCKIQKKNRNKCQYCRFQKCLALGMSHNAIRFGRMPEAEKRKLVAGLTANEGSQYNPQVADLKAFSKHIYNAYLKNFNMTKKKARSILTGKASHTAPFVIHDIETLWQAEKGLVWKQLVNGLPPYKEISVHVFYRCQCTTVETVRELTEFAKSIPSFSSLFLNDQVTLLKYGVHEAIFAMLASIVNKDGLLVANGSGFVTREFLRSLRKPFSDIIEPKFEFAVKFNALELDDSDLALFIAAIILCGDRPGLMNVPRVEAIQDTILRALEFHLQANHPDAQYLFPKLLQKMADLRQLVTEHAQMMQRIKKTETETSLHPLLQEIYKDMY
The experiment can be described thus: Agonist activity at human GAL4 DBD-fused PPARdelta LBD (138 to 441 residues) transfected in HEK293T cells assessed as fold activation at 10 uM incubated for 14 to 16 hrs by Renilla/Firefly dual-luciferase reporter assay. It is filed as cell-based. To be noted: time 14-16 hrs.

The target of experiment [4] is T3, Oxysterols receptor LXR-alpha (Homo sapiens) (UniProt Q13133).
T3 sequence (whole entry): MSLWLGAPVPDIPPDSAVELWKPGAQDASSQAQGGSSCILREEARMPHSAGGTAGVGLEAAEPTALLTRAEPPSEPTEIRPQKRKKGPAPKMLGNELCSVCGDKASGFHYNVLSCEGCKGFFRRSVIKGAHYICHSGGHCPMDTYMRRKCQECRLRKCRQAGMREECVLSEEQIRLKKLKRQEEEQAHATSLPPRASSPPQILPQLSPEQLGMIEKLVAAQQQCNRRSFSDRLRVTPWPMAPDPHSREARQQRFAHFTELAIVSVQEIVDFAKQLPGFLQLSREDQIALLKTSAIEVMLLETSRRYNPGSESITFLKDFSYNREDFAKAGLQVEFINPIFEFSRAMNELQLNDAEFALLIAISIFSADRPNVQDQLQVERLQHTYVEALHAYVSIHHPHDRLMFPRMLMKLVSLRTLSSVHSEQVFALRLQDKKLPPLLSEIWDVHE
Kind of experiment: Agonist activity at human GAL4 DBD-fused LXRalpha LBD (182 to 447 residues) transfected in HEK293T cells assessed as fold activation at 10 uM incubated for 14 to 16 hrs by Renilla/Firefly dual-luciferase reporter assay. The format is cell-based. The following applies: time 14-16 hrs.

The target of experiment [5] is T4, Retinoic acid receptor alpha (Homo sapiens) (UniProt P10276).
T4 sequence (whole entry): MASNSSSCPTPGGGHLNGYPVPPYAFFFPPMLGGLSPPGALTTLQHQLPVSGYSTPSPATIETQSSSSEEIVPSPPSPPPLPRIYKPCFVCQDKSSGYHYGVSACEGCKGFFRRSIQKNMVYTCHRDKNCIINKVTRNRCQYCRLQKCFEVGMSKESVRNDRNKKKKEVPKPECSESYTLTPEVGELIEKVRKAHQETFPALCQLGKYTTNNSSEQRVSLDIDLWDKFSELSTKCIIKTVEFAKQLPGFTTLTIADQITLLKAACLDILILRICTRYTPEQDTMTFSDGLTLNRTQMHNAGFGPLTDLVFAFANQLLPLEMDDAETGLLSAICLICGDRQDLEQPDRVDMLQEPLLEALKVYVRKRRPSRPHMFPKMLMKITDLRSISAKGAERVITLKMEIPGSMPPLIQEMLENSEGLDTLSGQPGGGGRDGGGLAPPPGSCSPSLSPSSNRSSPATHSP
The experiment can be described thus: Agonist activity at human GAL4 DBD-fused RARalpha LBD (177 to 462 residues) transfected in HEK293T cells assessed as fold activation at 10 uM incubated for 14 to 16 hrs by Renilla/Firefly dual-luciferase reporter assay. It is filed as cell-based. The following applies: time 14-16 hrs.

In experiment [6] the target is T5, Vitamin D3 receptor (Homo sapiens) (UniProt P11473).
T5 sequence (whole entry): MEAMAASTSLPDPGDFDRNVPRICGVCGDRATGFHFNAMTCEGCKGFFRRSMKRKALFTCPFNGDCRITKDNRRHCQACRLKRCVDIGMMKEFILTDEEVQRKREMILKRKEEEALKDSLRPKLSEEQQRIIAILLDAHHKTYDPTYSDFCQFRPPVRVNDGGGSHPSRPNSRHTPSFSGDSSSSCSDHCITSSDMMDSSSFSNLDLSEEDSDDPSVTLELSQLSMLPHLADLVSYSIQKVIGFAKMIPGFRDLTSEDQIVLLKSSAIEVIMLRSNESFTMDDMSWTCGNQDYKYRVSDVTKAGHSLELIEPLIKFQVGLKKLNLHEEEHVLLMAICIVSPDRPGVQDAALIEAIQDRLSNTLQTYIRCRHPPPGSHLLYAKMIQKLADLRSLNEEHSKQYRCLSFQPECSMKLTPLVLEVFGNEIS
The experiment can be described thus: Agonist activity at human GAL4 DBD-fused VDR LBD (119 to 427 residues) transfected in HEK293T cells assessed as fold activation at 10 uM incubated for 14 to 16 hrs by Renilla/Firefly dual-luciferase reporter assay. It is filed as cell-based. The following applies: time 14-16 hrs.

The test system of experiment [7] is SGBS. The experiment can be described thus: Induction of adipogenic differentiation in human SGBS cells assessed as intracellular lipid droplet accumulation at 0.01 to 1 uM measured after 4 days by Nile red staining based imaging analysis. The format is functional, cell-based. To be noted: dose 0.01-1 µM, time 4.0 day.
For experiment [8], the system named is SGBS. Kind of experiment: Induction of adipogenic differentiation in human SGBS cells assessed as increase in perilipin A mRNA expression A at 0.01 to 1 uM by RT-PCR analysis. The format is functional, cell-based. To be noted: dose 0.01-1 µM.
In experiment [9] the test system is SGBS. Kind of experiment: Induction of browning in human SGBS cells assessed as increase in UCP1 mRNA expression at 0.01 to 1 uM by RT-PCR analysis. It is filed as functional, cell-based. To be noted: dose 0.01-1 µM.
Experiment [10] concerns SGBS. Kind of experiment: Induction of basal respiration in human SGBS cells assessed as increase in oxygen consumption rate at 0.01 to 1 uM incubated for 14 days in presence of dibutyryl-cAMP by Seahorse XFe96 flux analyzer. The format is functional, cell-based. To be noted: dose 0.01-1 µM, time 14.0 day.
Experiment [11] relates to SGBS. Kind of experiment: Induction of cellular respiration in human SGBS cells assessed as increase in oxygen consumption rate at 0.01 to 1 uM with ATP-linked sequential addition of FCCP measured after 14 days by Seahorse XFe96 flux analyzer. To be noted: dose 0.01-1 µM, time 14.0 day. It is filed as functional, cell-based.
Experiment [12] has as its system SGBS. Kind of experiment: Induction of proton leakage in human SGBS cells assessed as increase in oxygen consumption rate at 0.01 to 1 uM with sequential addition of oligomycin measured after 14 days by Seahorse XFe96 flux analyzer. The format is functional, cell-based. The following applies: dose 0.01-1 µM, time 14.0 day.
Experiment [13] has as its system Heart. Kind of experiment: Cardioprotective activity in Langendorff-perfused wild-type C57BL/6 mouse heart assessed as increase in heart rate at 300 nM. It is filed as functional, tissue-based.
Experiment [14] has as its system Heart. Kind of experiment: Cardioprotective activity in Langendorff-perfused wild-type C57BL/6 mouse heart assessed as increase in heart rate at 3 nM. It is filed as functional, tissue-based.
The species entered for experiment [15] is Mus musculus. Kind of experiment: Cardioprotective activity in Langendorff-perfused wild-type C57BL/6 mouse model of coronary occlusion induced ischemia/reperfusion assessed as increase in left ventricular developed pressure at 3 nmol/L followed by ischemia for 20 mins and measured 2 hrs after reperfusion […]. The format is functional, organism-based. To be noted: time 140.0 min.

Experiment [16] is filed under the species Mus musculus. The experiment can be described thus: Cardioprotective activity in Langendorff-perfused wild-type C57BL/6 mouse model of coronary occlusion induced ischemia/reperfusion assessed as decrease in left ventricular end diastolic pressure at 3 nmol/L followed by ischemia for 20 mins and measured 2 hrs after reperfusion […]. The format is functional, organism-based. To be noted: time 140.0 min.

The test system of experiment [17] is Heart. The experiment can be described thus: Cardioprotective activity in Langendorff-perfused wild-type C57BL/6 mouse heart assessed as increase in heart rate at 30 nM. The format is functional, tissue-based.
The subject of experiment [18] is SGBS. Kind of experiment: Induction of browning in human SGBS cells assessed as increase in UQCRC2 mRNA expression by qRT-PCR analysis. It is filed as functional, cell-based. To be noted: dose 0.01-1 µM.

Calls of active or inactive are those of the source. The rule behind the calls is not given here.

Consider `CC[C@H](Cc1ccc(C(=O)NCc2ccc(OC)cc2C(F)(F)F)cc1)C(=O)O`, for which the result (in the experiment on SGBS [1]; in experiment [3]; in experiment [4]; in [5]; in experiment [6]; with Heart [14]) was inactive. Further, the outcome (in [2]; with SGBS [7]; in the experiment on SGBS [8]; in the experiment with SGBS [9]; in the experiment on SGBS [10]; in the experiment on SGBS [11]) was Active. Besides, the outcome in the experiment with SGBS [12], with Heart [13], in the experiment listed under Mus musculus [15] and in the experiment listed under Mus musculus [16] was Active.

Consider `O=C(NC12CC3CC(CC(C3)C1)C2)N[C@H]1CC[C@H](Oc2ccc(C(=O)O)cc2)CC1`, for which the result with Heart [17] was Active. Also, the outcome in the experiment with Heart [14] was inactive.

Take `CN(CCOc1ccc(CC2SC(=O)NC2=O)cc1)c1ccccn1` (configuration not stated): the outcome in the experiment on SGBS [8] was Active. Further, in the experiment on SGBS [18], the Activity result was “Dose-Dependent Effect”.

For `CC[C@@H](Cc1ccc(C(=O)NCc2ccc(OC)cc2C(F)(F)F)cc1)C(=O)O`, the result in the experiment with SGBS [1], in the experiment on SGBS [7] and in the experiment on SGBS [9] was inactive. The outcome in the experiment on SGBS [8], with SGBS [10], in the experiment on SGBS [11] and in the experiment on SGBS [12] was Active.
